Assay results from patent publication US12501899B2, “Mite infestation treatment” (priority 2019, dated 2025).
Counter-ions that a name gives are not always drawn. Like-named read-outs stand apart in the source and are kept apart here.

Assays:
[1] = test system: Varroa destructor
Procedure: About 300 bees (Apis mellifera) infected with Varroa destructor were taken from a hive superinfected with Varroa destructor. The bees were then placed in a device allowing to detach Varroa mites attached to the bees (device described in Community model n° 003419415-0001) filled with icing sugar. The device was stirred for 2 minutes to sample the Varroa mites attached to the bees. The icing sugar allows to interfere between the bee and the Varroa mite that was attached thereto. Varroa mites were harvested with icing sugar because they pass through the holes in the device, unlike bees. The Varroa mites were then separated from the icing sugar.
The Varroa mites thus recovered were dispatched in boxes (10 Varroa mites per box).
(§1) The bees were then dispatched in the boxes (10 per box).
(§2) The bees were then put to sleep for a few minutes using CO2 (flow of 3 liters for 20 seconds) in order to deposit 1 μL of compound to be tested on their thorax using a pipette. It should be noted that the bees which received romifidine hydrochloride at a concentration of 10 μg/μL received 2 μL of product. The bees were unconscious for the time the compound to be tested was deposited, that is to say around three minutes, then they woke up.
(§3) After thoracic deposition of the compound to be tested, the 10 bees from the same box were transferred to a box containing the 10 Varroa mites (cf. “Preparation of Varroa mites” above). Liquid sugar was left in each of the boxes to feed the bees during the observations. The series of boxes was then placed in an oven at […] with a humidity of 50% in order to approximate hive conditions as closely as possible.
(§4) The mortality of Varroa mites and bees was then monitored 5 minutes, 2 hours, 4 hours and 24 hours after application of the compound to be tested to the bees. Dead Varroa mites correspond to Varroa mites detached from the bees. Dead bees correspond to bees which no longer move and which are often placed on their thorax.
(§5) The following compositions were applied to the thorax of the bees: • Solvent, • Amitraz at 1 μg/μL in acetone, • Clonidine hydrochloride at 100 μg/μL, 10 μg/μL, 1 μg/μL and 0.1 μg/μL in methanol, • Detomidine hydrochloride monohydrate at 1 μg/μL in methanol, • Dexmedetomidine hydrochloride at 100 μg/μL, 10 μg/μL, 1 μg/μL and 0.1 μg/μL in methanol, • Romifidine hydrochloride at 10 μg/μL and at 5 μg/μL in methanol, • Tizanidine hydrochloride at 1 μg/μL in methanol, • Medetomidine hydrochloride at 0.1 μg/μL in ethanol, • Levomedetomidine hydrochloride at 100 μg/μL, 10 μg/μL, 1 μg/μL and 0.1 μg/μL in methanol, • Octopamine at 1 μg/μL in ethanol. Results

[2] = test system: bees (Apis mellifera); conditions: for bees killed / bee mortality / bees killed: 1 μL on bee thorax; for bees killed / bee mortality: time not stated (monitored up to 24 hours); for mortality / toxicity for the bees: after 24 hours
Procedure: as §1, §2, §3, §4, §5

## Clc1cccc(Cl)c1NC1=NCCN1 [Clonidine hydrochloride, N-(2,6-dichlorophenyl)-4,5-dihydro-1H-imidazol-2-amine]
[1]; full efficiency after 24 hours
  kinetics of the Varroacid effect (in words): rather slow compared to the positive control
[2]; 1 μg/μL
  bees killed / bee mortality: zero mortality
[2]; 10 μg/μL
  bees killed: 10%
[2]; 100 μg/μL
  bees killed: 10%

## Cc1cccc(Cc2cnc[nH]2)c1C [Detomidine hydrochloride monohydrate, 4-[(2,3-dimethylphenyl)-methyl]-3H-imidazole]
[1]; 1 μg/μL, after 2 hours
  Varroa mites killed: 40%
[1]; 1 μg/μL, after 24 hours
  Varroa mites killed / Varroa mite mortality: 100%
[2]; 1 μg/μL, after 2 hours
  mortality for the bees: without mortality
[2]; 1 μg/μL
  mortality / toxicity for the bees: without mortality

## NCC(O)c1ccc(O)cc1 (stereo not drawn) [Octopamine]
[1]; 1 μg/μL in ethanol
  Varroacid effect (in words): No Varroacid effect
[2]; 1 μg/μL
  bees killed / bee mortality: zero

## Clc1ccc2nsnc2c1NC1=NCCN1 [Tizanidine hydrochloride, 4-Chloro-N-(4,5-dihydro-1H-imidazol-2-yl)-8-thia-7,9-diazabicyclo, nona-2,4,6,9-tetraen-5-amine]
[2]; 1 μg/μL
  mortality / toxicity for the bees: without toxicity

## Fc1cccc(Br)c1NC1=NCCN1 [Romifidine hydrochloride, N-(2-bromo-6-fluorophenyl)-4,5-dihydro-1H-imidazol-2-amine]
[1]; 5 μg/μL, 24 hours, compared with 10 μg/μL at 4 hours
  mortality of Varroa mites: same level of mortality
[1]; 2 μl of product at 10 μg/μL, after 2 hours
  mortality of Varroa mites: 75%
[1]; 2 μl of product at 10 μg/μL, after 4 hours
  mortality of Varroa mites: 95%
[2]; all doses (10 and 5 μg/μL), even after 24 hours
  Bee mortality: zero
